Measured values taken from patent US20080095778A1, “Treatment Of Fungal Infections” (priority 2004, published 2008).

How the values were obtained:
[1] = test system: A. fumigatus; assay: Broth microdilution (NCCLS M38-A) checkerboard assay, A. fumigatus; type: cell-based, Aspergillus fumigatus
Description: (§1) Stock solutions of amphotericin B (AMB, Sigma), caspofungin (Caspo), voriconazole (VOR) and itraconazole (ITZ) were prepared according to the National Committee for Clinical Laboratory Standards (M38-A) in RPMI 1640 with glutamine broth medium, buffered to pH 7.0 with […] morpholinopropanesulphonic acid (MOPS). AMB stock solutions were prepared as a 100× series in 100% dimethyl sulfoxide (DMSO) and diluted in medium to a concentration range of 0.03125 to 16 μg/ml. Caspofungin, voriconazole and itraconazole were tested at a concentration range of 0.03125 to 1024 μg/ml, and Mycograb® (NeuTec Pharma plc) at a concentration range of 0.25 to 1024 μg/ml.
(§2) Clinical isolates of Aspergillus fumigatus (2), A. flavus (1), A. terreus (1) and A. niger (1) were obtained from the Department on Microbiology, Manchester Royal Infirmary, Manchester, UK.
(§3) An inoculum suspension was prepared in buffered RPMI with glutamine medium by probing colonies from a 7 day old Sabouraud plate. The suspension was adjusted to 0.09-0.11 (80% to 82% transmittance) for Aspergillus species, 0.15-0.17 (68% to 70% transmittance). The inoculum was diluted a further 1:2 when added to the antifungal agents in the assay (final inoculum (0.4×10^4 to 0.5×10^4). For AMB and Mycograb®, either alone or in combination, the endpoint was determined as the concentration to produce no growth (MIC-0). Microtitre plates were incubated at 37° C. without agitation for 48 hours for Aspergillus species. For caspofungin, voriconazole and itraconazole, either alone or in combination with Mycograb® antibody, the MIC endpoint was determined as the concentration resulting in a prominent decrease in turbidity (≧50% growth inhibition, MIC-2) compared to the growth control (Keele et al. 2001; Espinel-Ingroff 2003). The final inhibitory concentration (FIC) was calculated for each drug by dividing the MIC in the presence of the second drug by the MIC in its absence. For each combination, two fractions were produced which were summated to produce the fractional final inhibitory concentration. Synergy was defined by value of ≦0.5, indifference was defined by a value of >0.5 to <4.0, and antagonism was defined by a value of ≧4.0 (Matthews et al., 2003).

[2] = test system: Aspergillus species; assay: Antifungal activity with Mycograb antibody, summary over the Aspergillus species examined; type: cell-based; details: summary of Tables 1-4; agent combined with Mycograb antibody
Description: as §3

[3] = test system: A. flavus; assay: Broth microdilution (NCCLS M38-A) checkerboard assay, A. flavus; type: cell-based
Description: as §1, §2, §3

[4] = test system: Candida strains; details: wide variety of fungal strains (e.g. Candida species); WO 01/76627; cited from earlier work
[5] = test system: A. fumigatus CI2; assay: Broth microdilution (NCCLS M38-A) checkerboard assay, A. fumigatus CI2; type: cell-based, Aspergillus fumigatus
Description: as §1, §2, §3

[6] = test system: A. niger; assay: Broth microdilution (NCCLS M38-A) checkerboard assay, A. niger; type: cell-based
Description: as §1, §2, §3

[7] = test system: A. terreus; assay: Broth microdilution (NCCLS M38-A) checkerboard assay, A. terreus; type: cell-based
Description: as §1, §2, §3

[8] = agent alone, Table 1, no growth endpoint
[9] = amphotericin B and Mycograb combination
[10] = amphotericin B and Mycograb in combination

Structure (SMILES): C[C@@H]1[C@H](O)[C@@H](C)/C=C/C=C/C=C/C=C/C=C/C=C/C=C/[C@H](O[C@@H]2O[C@H](C)[C@@H](O)[C@H](N)[C@@H]2O)C[C@@H]2O[C@](O)(C[C@@H](O)C[C@@H](O)[C@H](O)CC[C@@H](O)C[C@@H](O)CC(=O)O[C@H]1C)C[C@H](O)[C@H]2C(=O)O [AMB, amphotericin B]
- MIC-0 of each agent, Alone [1, 8]: 2 µg/mL
- FICI [1, 9]: 0.5
- Outcome [1, 9]: Indifferent (indifference was defined by a value of >0.5 to <4.0)
- MIC-0 of each agent, Combination [1, 10]: 1 µg/mL
- Antifungal activity / surprising effect when used in combination with Mycograb antibody [2]: not observed
- MIC-0 of each agent, Alone [3, 8]: 4 µg/mL
- FICI [3, 9]: 2
- Outcome [3, 9]: Indifferent (indifference was defined by a value of >0.5 to <4.0)
- MIC-0 of each agent, Combination [3, 10]: 4 µg/mL
- Efficacy of antifungal agent in the presence of the antibody [4]: significantly enhanced
- MIC-0 of each agent, Alone [5, 8]: 2 µg/mL
- FICI [5, 9]: 0.531
- Outcome [5, 9]: Indifferent (indifference was defined by a value of >0.5 to <4.0)
- MIC-0 of each agent, Combination [5, 10]: 1 µg/mL
- MIC-0 of each agent, Alone [6, 8]: 2 µg/mL
- FICI [6, 9]: 0.5
- Outcome [6, 9]: Indifferent (indifference was defined by a value of >0.5 to <4.0)
- MIC-0 of each agent, Combination [6, 10]: 1 µg/mL
- MIC-0 of each agent, Alone [7, 8]: 4 µg/mL
- FICI [7, 9]: 2
- Outcome [7, 9]: Indifferent (indifference was defined by a value of >0.5 to <4.0)
- MIC-0 of each agent, Combination [7, 10]: 4 µg/mL
- FIC ([7]; amphotericin B and Mycograb, MIC in combination divided by MIC alone): 1 µg/mL
